Data from ChEMBL document CHEMBL4052689, “Discovery and optimization of 3-(4-aryl/heteroarylsulfonyl)piperazin-1-yl)-6-(piperidin-1-yl)pyridazines as novel, CNS penetrant pan-muscarinic antagonists” (Bioorg Med Chem Lett, 2017).
Activity calls are given as the source filed them. The rule behind the calls is not given here.

Tests used:
[1] = target: Muscarinic acetylcholine receptor M2 (Homo sapiens) (UniProt P08172); assay: Antagonist activity at human recombinant muscarinic M2 receptor expressed in CHO cells co-transfected with Gqi5 assessed as acetylcholine-induced response in presence of EC80 acetylcholine by calcium mobilization assay relative to untreated control; assay type: functional, cell-based; parameters: scale not given: the % may be the effect or the level left
Chain of Muscarinic acetylcholine receptor M2 (Homo sapiens) (P08172 whole entry): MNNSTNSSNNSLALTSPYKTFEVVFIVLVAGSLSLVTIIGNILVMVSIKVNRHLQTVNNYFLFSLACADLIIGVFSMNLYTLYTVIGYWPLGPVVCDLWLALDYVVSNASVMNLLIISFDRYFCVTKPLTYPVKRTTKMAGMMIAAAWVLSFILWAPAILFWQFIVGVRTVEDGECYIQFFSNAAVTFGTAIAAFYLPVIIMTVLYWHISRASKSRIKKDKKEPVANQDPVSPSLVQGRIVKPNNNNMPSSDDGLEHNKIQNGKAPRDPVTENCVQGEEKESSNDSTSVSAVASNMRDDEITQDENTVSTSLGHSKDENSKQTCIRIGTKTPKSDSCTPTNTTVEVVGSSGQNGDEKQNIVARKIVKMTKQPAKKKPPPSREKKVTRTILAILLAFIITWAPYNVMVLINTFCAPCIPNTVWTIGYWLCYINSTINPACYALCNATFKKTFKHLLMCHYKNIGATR

[2] = target: Muscarinic acetylcholine receptor M5 (Homo sapiens, UniProt P08912); assay: Antagonist activity at human recombinant muscarinic M5 receptor expressed in CHO cells co-transfected with Gqi5 in presence of EC80 acetylcholine by calcium mobilization assay; assay type: functional, cell-based
[3] = target: Muscarinic acetylcholine receptor M5 (Homo sapiens) (UniProt P08912); assay: Antagonist activity at human recombinant muscarinic M5 receptor expressed in CHO cells co-transfected with Gqi5 assessed as acetylcholine-induced response in presence of EC80 acetylcholine by calcium mobilization assay relative to untreated control; assay type: functional, cell-based; parameters: scale not given: the % may be the effect or the level left
[4] = target: Muscarinic acetylcholine receptor M2 (Rattus norvegicus) (UniProt P10980); assay: (§1) Antagonist activity at rat muscarinic M2 receptor by calcium mobilization assay; assay type: functional
Chain of Muscarinic acetylcholine receptor M2 (Rattus norvegicus) (P10980 whole entry): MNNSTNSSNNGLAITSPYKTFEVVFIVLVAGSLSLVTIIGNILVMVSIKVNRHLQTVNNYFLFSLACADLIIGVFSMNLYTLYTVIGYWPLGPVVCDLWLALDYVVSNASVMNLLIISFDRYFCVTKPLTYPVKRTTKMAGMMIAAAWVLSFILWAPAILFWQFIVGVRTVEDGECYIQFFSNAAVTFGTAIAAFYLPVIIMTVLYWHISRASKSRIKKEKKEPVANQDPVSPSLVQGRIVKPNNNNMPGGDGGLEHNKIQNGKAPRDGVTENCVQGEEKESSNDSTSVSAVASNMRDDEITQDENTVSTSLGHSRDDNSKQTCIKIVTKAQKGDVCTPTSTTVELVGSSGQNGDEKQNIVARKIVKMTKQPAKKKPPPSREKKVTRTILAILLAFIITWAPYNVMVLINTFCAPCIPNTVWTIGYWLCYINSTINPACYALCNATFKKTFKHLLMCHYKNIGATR

[5] = target: Muscarinic acetylcholine receptor M1 (Homo sapiens) (UniProt P11229); assay: Antagonist activity at human recombinant muscarinic M1 receptor expressed in CHO cells co-transfected with Gqi5 assessed as acetylcholine-induced response in presence of EC80 acetylcholine by calcium mobilization assay relative to untreated control; assay type: functional, cell-based; parameters: scale not given: the % may be the effect or the level left
Chain of Muscarinic acetylcholine receptor M1 (Homo sapiens) (P11229 whole entry): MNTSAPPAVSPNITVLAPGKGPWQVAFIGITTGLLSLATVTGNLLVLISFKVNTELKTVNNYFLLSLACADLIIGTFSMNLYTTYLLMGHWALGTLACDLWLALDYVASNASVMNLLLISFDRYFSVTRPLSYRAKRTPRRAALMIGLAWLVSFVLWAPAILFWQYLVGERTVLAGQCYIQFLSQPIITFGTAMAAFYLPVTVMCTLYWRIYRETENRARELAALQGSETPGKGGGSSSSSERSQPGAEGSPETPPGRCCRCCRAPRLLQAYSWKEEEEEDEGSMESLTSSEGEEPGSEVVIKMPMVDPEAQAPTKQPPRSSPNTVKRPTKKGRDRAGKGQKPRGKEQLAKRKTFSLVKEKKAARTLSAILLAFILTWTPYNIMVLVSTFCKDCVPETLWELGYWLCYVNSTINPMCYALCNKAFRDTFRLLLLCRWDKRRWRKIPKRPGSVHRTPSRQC

[6] = Brain to plasma permeability coefficient in rat dosed as cassette dosing; assay type: ADME, organism-based
[7] = target: Muscarinic acetylcholine receptor M1 (Rattus norvegicus) (UniProt P08482); assay: (§2) Antagonist activity at rat muscarinic M1 receptor by calcium mobilization assay; assay type: functional
Chain of Muscarinic acetylcholine receptor M1 (Rattus norvegicus) (P08482 whole entry): as the sequence (P11229 whole entry) above, with A5V, T254S, P309S, R320K, A337G, I413V counted along it

[8] = target: Muscarinic acetylcholine receptor M5 (Rattus norvegicus) (UniProt P08911); assay: Antagonist activity at rat muscarinic M5 receptor assessed as acetylcholine-induced response by calcium mobilization assay; assay type: functional; parameters: Activity: scale not given: the % may be the effect or the level left
Chain of Muscarinic acetylcholine receptor M5 (Rattus norvegicus) (P08911 whole entry): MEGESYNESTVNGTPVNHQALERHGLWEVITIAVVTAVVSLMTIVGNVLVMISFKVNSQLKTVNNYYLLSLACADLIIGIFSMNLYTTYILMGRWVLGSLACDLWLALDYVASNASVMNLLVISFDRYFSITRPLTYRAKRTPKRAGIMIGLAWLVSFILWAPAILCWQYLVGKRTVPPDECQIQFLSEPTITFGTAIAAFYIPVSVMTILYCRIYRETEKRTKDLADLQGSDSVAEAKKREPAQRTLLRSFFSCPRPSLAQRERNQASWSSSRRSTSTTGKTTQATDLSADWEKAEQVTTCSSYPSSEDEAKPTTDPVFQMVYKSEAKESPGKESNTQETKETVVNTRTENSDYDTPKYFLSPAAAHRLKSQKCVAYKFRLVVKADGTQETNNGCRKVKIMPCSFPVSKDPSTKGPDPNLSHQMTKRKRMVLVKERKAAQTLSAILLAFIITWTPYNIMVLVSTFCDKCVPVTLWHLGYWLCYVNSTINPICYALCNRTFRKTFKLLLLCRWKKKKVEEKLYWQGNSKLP

[9] = target: T1, Muscarinic acetylcholine receptor M3 (Homo sapiens, UniProt P20309); assay: Antagonist activity at human recombinant muscarinic M3 receptor expressed in CHO cells assessed as acetylcholine-induced response in presence of EC80 acetylcholine by calcium mobilization assay relative to untreated control; parameters: scale not given: the % may be the effect or the level left
Target sequence in this assay (P20309 whole entry, looked up): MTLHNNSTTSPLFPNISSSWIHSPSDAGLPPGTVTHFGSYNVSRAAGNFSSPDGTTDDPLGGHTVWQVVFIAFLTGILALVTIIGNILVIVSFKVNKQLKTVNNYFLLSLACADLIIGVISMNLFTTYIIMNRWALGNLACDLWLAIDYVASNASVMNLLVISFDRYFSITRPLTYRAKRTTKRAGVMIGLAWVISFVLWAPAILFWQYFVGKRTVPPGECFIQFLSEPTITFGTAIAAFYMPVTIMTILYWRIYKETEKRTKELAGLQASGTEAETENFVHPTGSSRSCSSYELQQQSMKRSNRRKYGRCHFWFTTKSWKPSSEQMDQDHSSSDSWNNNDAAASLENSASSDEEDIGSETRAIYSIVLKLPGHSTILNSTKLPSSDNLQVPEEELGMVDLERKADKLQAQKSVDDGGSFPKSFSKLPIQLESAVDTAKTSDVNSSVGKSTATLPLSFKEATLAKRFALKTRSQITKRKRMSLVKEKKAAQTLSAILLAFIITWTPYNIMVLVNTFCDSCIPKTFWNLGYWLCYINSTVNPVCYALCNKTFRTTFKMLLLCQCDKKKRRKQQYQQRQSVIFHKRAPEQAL

Plasma [10] = assay: Protein binding in human plasma assessed as unbound fraction; assay type: ADME, cell-free
[11] = target: T2, Muscarinic acetylcholine receptor M4 (Homo sapiens, UniProt P08173); assay: Antagonist activity at human recombinant muscarinic M4 receptor expressed in CHO cells co-transfected with Gqi5 in presence of EC80 acetylcholine by calcium mobilization assay; assay type: functional, cell-based
T2 sequence (P08173 whole entry): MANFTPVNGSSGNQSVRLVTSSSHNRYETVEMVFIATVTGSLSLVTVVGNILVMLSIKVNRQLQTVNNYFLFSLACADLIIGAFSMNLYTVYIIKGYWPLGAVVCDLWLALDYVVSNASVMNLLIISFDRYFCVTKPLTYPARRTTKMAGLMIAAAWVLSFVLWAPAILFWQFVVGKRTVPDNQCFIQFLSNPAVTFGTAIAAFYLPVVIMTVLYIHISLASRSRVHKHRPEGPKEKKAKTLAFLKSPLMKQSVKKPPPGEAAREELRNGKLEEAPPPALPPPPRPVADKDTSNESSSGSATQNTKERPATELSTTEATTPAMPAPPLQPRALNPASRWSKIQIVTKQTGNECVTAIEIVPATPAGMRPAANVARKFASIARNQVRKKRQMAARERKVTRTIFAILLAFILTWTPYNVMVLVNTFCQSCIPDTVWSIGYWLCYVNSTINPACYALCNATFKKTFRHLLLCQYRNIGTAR

[12] = target: Muscarinic acetylcholine receptor M4 (Rattus norvegicus) (UniProt P08485); assay: (§3) Antagonist activity at rat muscarinic M4 receptor by calcium mobilization assay; assay type: functional
Chain of Muscarinic acetylcholine receptor M4 (Rattus norvegicus) (P08485 whole entry): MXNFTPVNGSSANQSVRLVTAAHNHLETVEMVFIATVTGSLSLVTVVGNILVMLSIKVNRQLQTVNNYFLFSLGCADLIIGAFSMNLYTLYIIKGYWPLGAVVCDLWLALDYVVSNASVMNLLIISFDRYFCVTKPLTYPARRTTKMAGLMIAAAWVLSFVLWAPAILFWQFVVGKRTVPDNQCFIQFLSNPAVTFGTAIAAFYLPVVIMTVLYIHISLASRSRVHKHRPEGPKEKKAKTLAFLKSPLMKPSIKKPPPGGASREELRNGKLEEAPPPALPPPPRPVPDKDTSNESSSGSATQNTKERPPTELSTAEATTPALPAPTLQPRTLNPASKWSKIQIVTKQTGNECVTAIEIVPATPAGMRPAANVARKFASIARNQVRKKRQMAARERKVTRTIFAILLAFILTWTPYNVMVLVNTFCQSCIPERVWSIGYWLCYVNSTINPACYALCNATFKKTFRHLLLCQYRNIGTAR

[13] = target: T1, Muscarinic acetylcholine receptor M3; assay: Antagonist activity at human recombinant muscarinic M3 receptor expressed in CHO cells co-transfected with Gqi5 in presence of EC80 acetylcholine by calcium mobilization assay; assay type: functional, cell-based
Target sequence in this assay (P20309 whole entry): as the sequence (P20309 whole entry, looked up) above

[14] = target: T2, Muscarinic acetylcholine receptor M4; assay: Displacement of [3H]NMS from human recombinant muscarinic M4 receptor expressed in CHO cell membranes
Plasma [15] = assay: Protein binding in rat plasma assessed as unbound fraction; assay type: ADME, cell-free
[16] = target: Muscarinic acetylcholine receptor M3 (Rattus norvegicus) (UniProt P08483); assay: (§4) Antagonist activity at rat muscarinic M3 receptor by calcium mobilization assay; assay type: functional
[17] = target: Muscarinic acetylcholine receptor M2 (Homo sapiens, UniProt P08172); assay: Antagonist activity at human recombinant muscarinic M2 receptor expressed in CHO cells co-transfected with Gqi5 in presence of EC80 acetylcholine by calcium mobilization assay; assay type: functional, cell-based
Chain of Muscarinic acetylcholine receptor M2 (Homo sapiens, UniProt P08172) (P08172 whole entry): as the sequence (P08172 whole entry) above

Brain = assay: Protein binding in rat brain homogenate assessed as unbound fraction; assay type: ADME, tissue-based
[18] = target: T3, Muscarinic acetylcholine receptor M4 (Homo sapiens) (UniProt P08173); assay: Antagonist activity at human recombinant muscarinic M4 receptor expressed in CHO cells co-transfected with Gqi5 assessed as acetylcholine-induced response in presence of EC80 acetylcholine by calcium mobilization assay relative to untreated control; assay type: functional, cell-based; parameters: scale not given: the % may be the effect or the level left
T3 sequence (whole entry): T2 sequence (P08173 whole entry)

[19] = target: Muscarinic acetylcholine receptor M1 (Homo sapiens, UniProt P11229); assay: Antagonist activity at human recombinant muscarinic M1 receptor expressed in CHO cells co-transfected with Gqi5 in presence of EC80 acetylcholine by calcium mobilization assay; assay type: functional, cell-based
Chain of Muscarinic acetylcholine receptor M1 (Homo sapiens, UniProt P11229) (P11229 whole entry): as the sequence (P11229 whole entry) above

[20] = Unbound brain-to-plasma concentration ratio in rat dosed as cassette dosing; assay type: ADME, organism-based
Liver [21] = assay: Drug metabolism in human liver microsomes assessed as metabolite A formation in presence of NADPH by UV and mass spectrometry; assay type: ADME, microsome
[22] = target: Muscarinic acetylcholine receptor M2 and M4 (Homo sapiens) (UniProt P08173+P08172); assay: Selectivity index, ratio of IC50 for human recombinant muscarinic M2 receptor to IC50 for human recombinant muscarinic M4 receptor
Plasma [23] = assay: Protein binding in rat plasma; assay type: ADME, cell-free
[24] = target: Muscarinic acetylcholine receptor M3 (Rattus norvegicus) (UniProt P08483); assay: Antagonist activity at rat muscarinic M3 receptor assessed as acetylcholine-induced response by calcium mobilization assay; assay type: functional; parameters: scale not given: the % may be the effect or the level left
[25] = target: Muscarinic acetylcholine receptor M2 (Rattus norvegicus, UniProt P10980); assay: as §1; assay type: functional
[26] = target: Muscarinic acetylcholine receptor M2 (Rattus norvegicus) (UniProt P10980); assay: Antagonist activity at rat muscarinic M2 receptor assessed as acetylcholine-induced response by calcium mobilization assay; assay type: functional; parameters: scale not given: the % may be the effect or the level left
Liver [27] = assay: Drug metabolism in human liver microsomes assessed as metabolite D formation in presence of NADPH by UV and mass spectrometry; assay type: ADME, microsome
Liver [28] = assay: Drug metabolism in rat liver microsomes assessed as metabolite F formation in presence of NADPH by UV and mass spectrometry; assay type: ADME, microsome
[29] = target: Muscarinic acetylcholine receptor M1 (Rattus norvegicus, UniProt P08482); assay: as §2; assay type: functional
Liver [30] = assay: Drug metabolism in human liver microsomes assessed as metabolite F formation in presence of NADPH by UV and mass spectrometry; assay type: ADME, microsome
Liver [31] = assay: Drug metabolism in human liver microsomes assessed as metabolite C formation in presence of NADPH by UV and mass spectrometry; assay type: ADME, microsome
Liver [32] = assay: Drug metabolism in human liver microsomes assessed as metabolite B formation in presence of NADPH by UV and mass spectrometry; assay type: ADME, microsome
Liver [33] = assay: Drug metabolism in human liver microsomes assessed as metabolite E formation in presence of NADPH by UV and mass spectrometry; assay type: ADME, microsome
[34] = target: Muscarinic acetylcholine receptor M4 (Rattus norvegicus, UniProt P08485); assay: as §3; assay type: functional
Liver [35] = assay: Drug metabolism in human liver microsomes assessed as metabolite G formation in presence of NADPH by UV and mass spectrometry; assay type: ADME, microsome
Homo sapiens [36] = species: Homo sapiens; assay: Selectivity index, ratio of IC50 for human recombinant muscarinic M5 receptor to IC50 for human recombinant muscarinic M4 receptor
Homo sapiens [37] = species: Homo sapiens; assay: Selectivity index, ratio of IC50 for human recombinant muscarinic M3 receptor to IC50 for human recombinant muscarinic M4 receptor
[38] = target: Muscarinic acetylcholine receptor M3 (Rattus norvegicus, UniProt P08483); assay: as §4; assay type: functional
Plasma [39] = assay: Protein binding in human plasma; assay type: ADME, cell-free
[40] = target: Muscarinic acetylcholine receptor M5 (Rattus norvegicus, UniProt P08911); assay: Antagonist activity at rat muscarinic M5 receptor by calcium mobilization assay; assay type: functional
[41] = target: Muscarinic acetylcholine receptor M4 (Rattus norvegicus) (UniProt P08485); assay: Antagonist activity at rat muscarinic M4 receptor assessed as acetylcholine-induced response by calcium mobilization assay; assay type: functional; parameters: scale not given: the % may be the effect or the level left
Liver [42] = assay: Drug metabolism in human liver microsomes assessed as metabolite H formation in presence of NADPH by UV and mass spectrometry; assay type: ADME, microsome
Liver [43] = assay: Drug metabolism in human liver microsomes in absence of NADPH by UV and mass spectrometry; assay type: ADME, microsome
Homo sapiens [44] = species: Homo sapiens; assay: Selectivity index, ratio of IC50 for human recombinant muscarinic M1 receptor to IC50 for human recombinant muscarinic M4 receptor
[45] = target: Muscarinic acetylcholine receptor M1 (Rattus norvegicus) (UniProt P08482); assay: Antagonist activity at rat muscarinic M1 receptor assessed as acetylcholine-induced response by calcium mobilization assay; assay type: functional; parameters: scale not given: the % may be the effect or the level left
Liver [46] = assay: Drug metabolism in rat liver microsomes in absence of NADPH by UV and mass spectrometry; assay type: ADME, microsome

Cc1noc(C)c1S(=O)(=O)N1CCN(c2ccc(N3CCCC(C)(C)C3)nn2)CC1
Activity [1]: 17% | IC50 [2]: 1030 nM | Activity [3]: 43% | inhibition [4]: Active | Activity [5]: 11% | Kp [6]: 2.1 | inhibition [7]: Active | inhibition [8]: Active | Activity [9]: 55% | Fu (Plasma [10]): 0.08 | IC50 ([11]; read-out: IC50): 120 nM | IC50 ([11]; read-out: pIC50 (converted)): 110 nM | inhibition [12]: Active | IC50 [13]: 782 nM | Ki [14]: 7.78 nM | Fu (Plasma [15]): 0.07 | inhibition [16]: Active | IC50 [17]: 352 nM | Fu (Brain): 0.04 | Activity [18]: 12% | IC50 [19]: 288 nM | K(p,uu,brain) [20]: 1.1

C[C@H]1CCCCN1c1ccc(N2CCN(S(=O)(=O)c3ccccc3Cl)CC2)nn1
Activity [1]: 2.9% | Drug metabolism (Liver [21]): Metabolite_Detected | Ratio IC50 [22]: 2.7 to 16 | IC50 [2]: 6500 nM | PPB (Plasma [23]): Active | Activity [24]: 40% | Activity [3]: 3.1% | IC50 [25]: 5900 nM | Activity [26]: 7.1% | Activity [5]: 2.8% | Drug metabolism (Liver [27]): Metabolite_Detected | Drug metabolism (Liver [28]): Metabolite_Detected | IC50 [29]: 1400 nM | Drug metabolism (Liver [30]): Metabolite_Detected | Activity [8]: 37% | Activity [9]: 4.3% | IC50 ([11]; read-out: IC50): 440 nM | IC50 ([11]; read-out: pIC50 (converted)): 427 nM | Drug metabolism (Liver [31]): Metabolite_Detected | Drug metabolism (Liver [32]): Metabolite_Detected | Drug metabolism (Liver [33]): Metabolite_Detected | IC50 [34]: 1000 nM | Drug metabolism (Liver [35]): Metabolite_Detected | IC50 [13]: 7000 nM | Ratio IC50 (Homo sapiens [36]): 2.7 to 16 | Ratio IC50 (Homo sapiens [37]): 2.7 to 16 | IC50 [38]: > 10000 nM | PPB (Plasma [39]): Active | IC50 [17]: 1200 nM | Activity [18]: 4% | IC50 [40]: > 10000 nM | Activity [41]: 4.8% | Drug metabolism (Liver [42]): Metabolite_Detected | Drug metabolism (Liver [43]): Metabolite_Notdetected | IC50 [19]: 1300 nM | Ratio IC50 (Homo sapiens [44]): 2.7 to 16 | Activity [45]: 2.6% | Drug metabolism (Liver [46]): Metabolite_Notdetected
